Here are results for one compound from patent US20160106439A1, “PNEUMATIC TOURNIQUET” (BIONUMERIK PHARMACEUTICALS, INC., priority 2013, published 2016).

The target of test [1] is T1, E13K, D16K, E95K, E103K Thioredoxin (Homo sapiens, UniProt P10599, D16K/E103K/E13K/E95K).
T1 construct: made in house; host or cells: E. coli BL21(DE3), pET-15b system
T1 sequence (P10599 1-105 E13K/D16K/E95K/E103K): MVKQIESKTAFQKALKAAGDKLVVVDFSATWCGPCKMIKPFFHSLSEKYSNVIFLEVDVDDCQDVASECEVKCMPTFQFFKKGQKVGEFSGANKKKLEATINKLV
Put plainly: X-ray crystallography of Tavocept-derived mesna adduct on Trx. The format is binding. Particulars: 40 mM Tavocept. Here is the method:
Adduct was prepared as described above with some modifications designed to increase the likelihood of success in crystallization of the protein. […] This reaction was incubated for 1 hour at 30° C. followed by overnight incubation at 4° C. […] Aliquots of this solution were analyzed by ESI LC-MS to confirm the presence of adduct(s) prior to initiation of crystallization experiments.
These initial broad screens produced crystals under a wide range of conditions (data not shown) and the screens used included: (i) PEGION, CRYSTALS HT, and PEGRX (Hampton Research) and (ii) JCSG and BASIC (JENA Biosciences). Multiple rounds of optimization were completed and included fine screens, varying the protein concentration and varying the protein to reservoir ratios to obtain diffraction quality crystals. In the Trx pH 9.0/8.5 structure (adduct formed at pH 9.0, crystals grown at pH 8.5), the best crystals were obtained in 20% ethanol, 0.1 M Tris (at 60 mg/mL Trx protein) and diffracted to 2.5 Å (C2 space group). In Trx pH 9.0/7.0 (adduct formed at pH 9.0, crystals grown at pH 7.0), the best crystals were obtained in 20% PEG3350, 0.2 M KCl (60 mg/mL Trx protein) and diffracted to 2.8 Å (C2 space group). In Trx pH 7.0/7.0 (adduct formed at pH 7.0, crystals grown at pH 7.0), the best crystals were obtained in 28% PEG3350, 0.2M KCl (160 mg/mL Trx protein) and diffracted to 1.85 Å resolution (P21 space group).
The solution obtained was consistent with four molecules in the crystal asymmetric unit. […] Molecules C and D were substantially rebuilt and the Tavocept-derived mesna adduct added after protein rebuilding was complete. The structure solution was supported by contiguous electron density for the entire chain trace of each molecule, landmark side chain density features matching the amino acid sequence including cysteines, absence of phi-psi violations, and final R/Rfree values in the normal range. […] For the Trx pH 9.0/8.5 structure, residual density observed near Cys69 of molecule A was modeled as a Tavocept-derived mesna adduct in a dual conformation. […]

In a further test the target is T2, bovine TrxR (Bos taurus, UniProt O62768).
T2 construct: purchased American Diagnostica
The test can be described thus: NADPH oxidation assay, Reaction A (TrxR alone). In kind it is biochemical. Particulars: without Trx, disulfide 0.5 mM. Here is the method:
See, Luthman M and Holmgren A. Rat liver thioredoxin and thioredoxin reductase: purification and characterization. Biochemistry 21:6628-6633 (1982). A typical assay mixture contained buffer (50 mM potassium phosphate, pH 7.0, 1 mM EDTA), NADPH (200 μM), and bovine TrxR (1.6 μg, 0.138 μM). Assays were run with and without recombinant human Trx (4.8 μM). […] All disulfides were added to reactions as 10x solutions in buffer. The total volume of each reaction was 0.1 mL. Reactions were initiated by the addition of TrxR and were incubated at 25° C. for 40 minutes. Reactions were analyzed using a Molecular Devices SpectraMax Plus UV/vis plate reader and the activity was calculated using a 4 minute linear portion of each assay.

Test [2] concerns the target T3, Recombinant human peroxiredoxin 1 (Homo sapiens, UniProt Q06830).
T3 construct: purchased SigmaAldrich
T3 sequence (Q06830 1-199): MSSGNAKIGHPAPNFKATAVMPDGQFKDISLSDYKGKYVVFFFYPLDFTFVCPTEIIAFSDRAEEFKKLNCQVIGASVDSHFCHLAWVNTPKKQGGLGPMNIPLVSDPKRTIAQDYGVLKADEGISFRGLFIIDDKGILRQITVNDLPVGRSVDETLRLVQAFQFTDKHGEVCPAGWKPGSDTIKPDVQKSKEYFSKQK
Put plainly: Tavocept-derived mesna adducts on Prx 1 (digest, LC-MS). In kind it is binding. Here is the method: Recombinant human peroxiredoxin 1 (purchased from SigmaAldrich; 333 μg; 0.015 micromoles) was reduced using an excess of dithiothreitol (DTT; 35 micromoles) in NH4HCO3 buffer (40 mM, pH 8.0) at 37° C. for 50 minutes (total reaction volume was 750 μL; final Prx concentration was 20 μM; and final DTT concentration was 46 mM). […] (total reaction volume was 500 μL). After 16-18 hours incubation, each reaction was removed and chromatographed using G25 Sephadex columns.
In brief, the G25 chromatographed Prx1 incubation reactions were digested with Trypsin Gold. Trypsin Gold was dissolved in 400 μL of NH4HCO3 and 100 μL of acetonitrile. A 100-150 μL volume of this Trypsin Gold stock was then added to 500 μL of the aforementioned final sample with 75 μL of acetonitrile and then the reaction volume was adjusted to a total of 750 μL with NH4HCO3. The sample was incubated for 6 hours at 37° C. Chymotrypsin digests were by dissolving chymotrypsin in 1M HCL. A 50 μL volume of this chymotrypsin stock solution was added to added to 500 μL of the aforementioned final sample along with 10% (v/v) of CaCl2 (100 mM stock). NH4HCO3 buffer was then added to bring the total reaction volume to 750 μL. Chymotrypsin digests were incubated for 16 hours at 30° C. Following digest by either trypsin or chymotrypsin, reactions were lyophilized to dryness overnight and then resuspended in a minimal amount of HPLC grade water prior to LC MS analyses.
A Symmetry C18 HPLC column (Waters, Franklin, Mass.; 3.5 μm; 4.6×75 mm) and a Waters Alliance liquid chromatography system (Waters 2695; Franklin, Mass.) coupled to a Micromass single quadropole mass detector (Micromass ZMD; Manchester, UK) were used to analyze fragments from trypsin or chymotrypsin digested human Prx1. The mobile phase contained 0.1% of formic acid throughout the run and the flow rate was 0.35 ml/min. […]

Structures are written as SMILES.

T2 sequence (O62768 whole entry): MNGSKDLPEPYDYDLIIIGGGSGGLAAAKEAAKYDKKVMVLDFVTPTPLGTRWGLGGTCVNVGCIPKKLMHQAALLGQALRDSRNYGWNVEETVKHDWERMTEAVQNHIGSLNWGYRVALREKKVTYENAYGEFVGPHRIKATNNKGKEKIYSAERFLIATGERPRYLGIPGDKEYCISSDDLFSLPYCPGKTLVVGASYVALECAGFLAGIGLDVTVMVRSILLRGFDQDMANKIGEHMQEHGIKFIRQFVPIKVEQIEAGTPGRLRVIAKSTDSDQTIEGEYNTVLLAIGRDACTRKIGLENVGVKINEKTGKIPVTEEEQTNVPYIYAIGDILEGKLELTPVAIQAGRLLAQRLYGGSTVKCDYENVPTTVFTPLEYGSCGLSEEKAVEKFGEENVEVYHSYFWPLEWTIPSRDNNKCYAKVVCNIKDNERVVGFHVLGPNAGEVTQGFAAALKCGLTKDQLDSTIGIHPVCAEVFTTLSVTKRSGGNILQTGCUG

In the case of `O=S(=O)([O-])CCSSCCS(=O)(=O)[O-].[Na+].[Na+]` [Tavocept, disodium 2,2′-dithio-bis-ethane sulfonate], the “Tavocept-derived mesna adduct sites on Trx” value is “clearly visible on Cys69 in both molecules A and B” in test [1] (Trx pH 7.0/7.0 structure); “clearly visible on both Cys69 and Cys62 in both molecules A and B” in test [1] (Trx pH 9.0/7.0 structure); “clearly visible on Cys69 in both molecules A and B” in test [1] (Trx pH 9.0/8.5 structure). In addition, the “Reduction of disulfide by TrxR alone” value at bovine TrxR is “did not detectably reduce”. The “Tavocept-derived mesna Adduct detected?” value in test [2] (chymotryptic fragment TDKHGEVCPAGW (Cys 173) of human Prx 1), in test [2] (chymotryptic fragment VCPTEIIAF (Cys 52) of human Prx 1) and in test [2] (tryptic fragment HGEVCPAGWK (Cys 173) of human Prx 1) was “Yes” in each case.
